Experimental data: patent US20210000889A1, “METHODS FOR PROGNOSING AND TREATING METABOLIC DISEASES” (INSERM (INSTITUT NATIONAL DE LA SANTÉ ET DE LA RECHERCHE …, priority 2018, published 2021)

Key:
ob/ob mice = assay: 1MT treatment of ob/ob mice (drinking water); assay type: in vivo
Description: Male C57Bl/6 Ido-1−/− mice were bought from the Jackson Laboratory (Jax) and bred in our facility. At weaning, mice were separated according to the genotype. Male ob/ob mice were bought from Janvier Laboratory at 4 weeks of age. Mice were fed with either a normal chow diet (NCD) (A03, SAFE, France) or subjected to diet-induced obesity containing 60% FAT (E15742-347, SSNIFF, Germany). High fat diet (HFD) was started at 7 weeks of age and continued for 20 weeks or less with ad libitum access to water and food. For chimerism experiment, we subjected 10 weeks old C57BL/6 WT and C57BL/6 Ido-1−/− to medullar aplasia by 9.5 gray lethal total body irradiation. We repopulated the mice with an intravenous injection of bone marrow cells isolated from femurs and tibias of male C57BL/6 WT and C57BL/6 Ido-1−/−. After 4 weeks of recovery, mice were fed a HFD for 20 weeks. In some experiments, IDO inhibitor (L-1methyl tryptophan, 1MT) (Sigma) was used at 2 mg/mL diluted in drinking water. […]
For oral glucose tolerance test (OGTT), mice were fasted overnight prior to an oral administration of 1-5 g/kg glucose. […] At 0, 15, 30, 60 min tail vein blood was collected, plasma samples were stored at −20° C. until they were analyzed for insulin concentration (Crystal Chem Inc., Downers Grove, USA). […]
HPLC Quantifications Thawed stools from mice were extracted as previously described 12. L-tryptophan (Trp) and L-kynurenine (Kyn) were measured via HPLC using a coulometric electrode array (ESA Coultronics, ESA Laboratories, Chelsford, Mass., USA)13. Quantifications were performed by referencing calibration curves obtained with internal standards. Other compounds (IAA) were quantified via liquid chromatography coupled to mass spectrometry (LC-MS) by using a Waters ACQUITY ultraperformance liquid chromatography (UPLC) system equipped with a binary solvent delivery manager and sample manager (Waters Corporation, Milford, Mass., USA) and that was coupled to a tandem quadrupole-time-of-flight (Q-TOF) mass spectrometer equipped with an electrospray interface (Waters Corporation). […]

WT mice on HFD = assay: IAA supplementation in drinking water of WT mice on HFD; assay type: in vivo; settings: IAA 2 mg/ml in drinking water, HFD 11 weeks, vs not supplemented, FIG. 3
Method: (a) feces IAA (indole acetic acid) (b) ITT, and quantification of M2-like macrophages (F4/80+CD11b+CD206+ in epiWAT) and CD45+ cells (n=5 per group) (c-d), in WT mice supplemented or not with IAA (diluted in drinking water, 2 mg/ml) and put on HFD during 11 weeks (n=9-10 per group Data are expressed as mean±sem. *P≤0.05, **p<0.001, ***p<0.0001.
For oral glucose tolerance test (OGTT), mice were fasted overnight prior to an oral administration of 1-5 g/kg glucose. Blood was sampled from the tail vein at 0, 5, 15, 30, 60, 90 and 120 min in order to assay glucose concentration (OneTouch Ultra glucometer, LifeScan Europe). At 0, 15, 30, 60 min tail vein blood was collected, plasma samples were stored at −20° C. until they were analyzed for insulin concentration (Crystal Chem Inc., Downers Grove, USA). Insulin tolerance test (ITT) was performed in mice food deprived for 5 h prior to an intraperitonial injection of 1 U/kg insulin. Blood was sampled from the tail vein at 0, 5, 15, 30, 60 and 90 min in order to assay glucose concentration. […]
The stromal vascular fraction (SVF) containing mononuclear cells and preadipocytes was extracted from adipose tissue. […] The SVF pellet was resuspended in 1 mL fluorescence-activated cell sorter (FACS) buffer. […] Samples were acquired using an Fortessa cytometer (Becton Dickinson) and analyzed with FlowJo (TreeStar) software programs.

[1] = 1MT 2 mg/mL in drinking water, vs untreated, data not shown

SMILES | body weight (ob/ob mice; [1]) | insulin sensitivity (ob/ob mice; [1]) | ratio of Kyn/Trp in the feces (ob/ob mice; 1MT-treated vs not treated, FIG. 1j) | adipose inflammation (M2-like macrophages and CD45+ cells in epiWAT) (WT mice on HFD) | insulin resistance (ITT) (WT mice on HFD)
Cn1cc(C[C@H](N)C(=O)O)c2ccccc21 [1MT, L-1methyl tryptophan] | no difference in body weight | improved insulin sensitivity | significant decrease |  | 
O=C(O)Cc1c[nH]c2ccccc12 [IAA, indole-3-acetic acid] |  |  |  | decreases | decreases insulin resistance
